# Results: patent US6869593B2, “Non-isotopic detection of osteoblastic activity in vivo using modified bisphosphonates” (Beth Israel Deaconess Medical Center, priority 2000, dated 2005)
# What was measured:
# [1] = Kinetic binding to hydroxyapatite crystals; conditions: 5 μM compound, 37° C.
# Method: In Vitro Hydroxyapatite Binding Experiments. For kinetic measurements of binding to HA, 5 μM Pam78 or the carboxylic acid of IRDye78 was added from a 20× stock solution to 100 μl NK buffer containing 1.5 mg/ml (1.5 mM) HA. Suspensions were continuously vortexed at 37° C. for the time indicated. Bound and unbound material was separated using a 0.2 μm filter in a 96-well format (Model MAGVN2210, Millipore, Bedford, Mass.), and the concentration of material in the filtrate was measured using the SPECTRAmax Gemini XS fluorescence microplate reader set for an excitation wavelength of 771 nm and an emission wavelength of 796 nm. Bound material was calculated by subtracting unbound compound from the total added to each reaction.
# [2] = Spectral measurements (absorbance, fluorescence); assay type: physicochemical
# Method: Spectral Measurements. Absorbance measurements and scans were performed on a Model DU-600 spectrophotometer (Beckman, Fullerton, Calif.) using 1 μM of each compound in 20 mM N-ethylmorpholine (NEM), pH 7.4 and 150 mM KCl (NK buffer). Fluorescence measurements, and excitation/emission scans were performed on a SPECTRAmax Gemini XS microplate reader (Molecular Devices, Sunnyvale, Calif.) using Model 655076 black 96-well plates (Greiner, Lake Mary, Fla.), and […] of each compound in NK buffer. Curves were analyzed using SOFTmax PRO software (Molecular Devices, Sunnyvale, Calif.) and plotted using Prism3 for the Macintosh (GraphPad Software, Inc., San Diego, Calif.).
# [3] = In vivo near-infrared fluorescence imaging of HA
# Method: Compound Injection and Measurement of Serum Concentration. Hairless 7 week old male nu/nu mice (Charles River Laboratories, Wilmington, Mass.; average weight 25 g) were anesthetized with 50 mg/kg i.p. pentobarbital. The lateral tail vein was visualized using a flashlight and 2.6 nmol of compound resuspended in 80 μl of phosphate buffered saline (PBS) was injected using a bent, 30 gauge, ½″ needle.
# [4] = Quantitation of skeletal uptake by rib fluorescence intensity
# Method: However, we were able to estimate skeletal uptake by measuring fluorescence intensity of the ribs in the skinless animal. Calibration standards matching the geometry of the ribs were placed next to the animal and mean fluorescence intensities of each standard and the caudal three ribs on each side were measured.
# [5] = Serum concentration after intravenous injection (plasma elimination); conditions: 2.6 nmol intravenous, tail vein
# Method: Hairless 7 week old male nu/nu mice (Charles River Laboratories, Wilmington, Mass.; average weight 25 g) were anesthetized with 50 mg/kg i.p. pentobarbital. The lateral tail vein was visualized using a flashlight and 2.6 nmol of compound resuspended in 80 μl of phosphate buffered saline (PBS) was injected using a bent, 30 gauge, ½″ needle. For measurement of plasma concentration, the tip of the tail of an anesthetized animal was cut with a razor blade, and 75 μl of whole blood was milked, and collected with a capillary tube. After clotting and removal of cells by centrifugation, serum was diluted 1:10 in 50 mM Hepes, pH 7.4 and a wavelength scan from 400 nm to 850 nm was performed. Serum concentration was determined by peak height at 771 nm after subtraction of background (pre-injection serum), and correction for hemoglobin absorbance.
# [6] = rats; cited from earlier work
# [7] = Competition of Pam78 binding to HA by unlabeled pamidronate; conditions: 80 nmol (800 μM) unlabeled pamidronate; 2.5 μM Pam78; 1.5 mg/ml HA; three hours
# Method: For competition experiments, free pamidronate was pre-incubated in 100 μl NK buffer with 1.5 mg/ml (1.5 mM) HA for five minutes at room temperature with continuous vortexing. Pam78 was then added from a 20× stock solution to a final concentration of 2.5 μM. Incubation at 37° C. with continuous vortexing continued for three hours prior to filtration and measurement as described above.
compound,measurement,setting,value
CC1(C)C(/C=C/C2=C(Oc3ccc(CCC(=O)NCCC(O)(P(=O)([O-])O)P(=O)(O)O)cc3)C(=C\C=C3/N(CCCCS(=O)(=O)O)c4ccc(S(=O)(=O)O)cc4C3(C)C)/CCC2)=[N+](CCCCS(=O)(=O)O)c2ccc(S(=O)(=O)O)cc21 (centres unmarked) [Pam78],time to asymptotic binding to HA,[1]; 1.5 mg/ml HA,≤ 1 h
same,percent of peak binding to HA achieved,"[1]; five minutes, 1.5 mg/ml (1.5 mM) HA, NK buffer",37%
same,peak absorption,[2]; 1 μM in NK buffer,unchanged from IRDye78
same,peak emission,"[2]; excitation fixed at 771 nm, NK buffer",796 nm
same,"time at which uptake in spine, ribs, paws and knees is detected above background",[3]; 2.6 nmol intravenous,15 min
same,"time by which phalanges, wrist, skull, pelvis, femur and ankle become visible",[3]; 2.6 nmol intravenous,≤ 3 h
same,stability in vivo (skeletal signal),[3]; twelve hours post-injection,no degradation of skeletal signal
same,concentration in ribs (mean±S.E.M.),"[4]; caudal three ribs on each side, skinless animal, 2.6 nmol injected",910 ± 27 nM
same,"skeletal uptake, percentage of injected dose",[4]; out of 2.6 nmol injected,57%
same,amount bound to the skeleton,"[4]; out of 2.6 nmol injected, assuming bone density 1.8 g/cm^3, skeletal weight 11.8% body weight",1.5 nmol
same,early half-life of elimination from plasma,[5],5.0 min
same,late half-life of elimination from plasma,[5],15.4 min
O.O.O=P([O-])([O-])CP(=O)([O-])[O-].[99Tc+4] [^99mTc-MDP],skeletal uptake,[6],52%
NCCC(O)(P(=O)(O)O)P(=O)(O)O [pamidronate],inhibition of Pam78 binding to HA,[7],90%
